The values below come from PubChem BioAssay (NCI).

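Interpolation was linear, between the two tested concentrations surrounding the appropriate level; five concentrations were tested over 48 hours in 96-well plates. TGI denotes the concentration required for complete inhibition of growth.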 Bounds are passed on as bounds.

Test systems include 786-0 renal; A498 renal; COLO 205 colon; EKVX NSCLC; HCT-15 colon; K-562 leukemia; LOX IMVI melanoma; NCI-H226 lung; OVCAR-4 ovarian; HS 578T breast; NCI-H522 lung.
Assay in all cases: growth of human tumour cells (NCI), 48 h

`CC(C)c1cc(=O)[nH]c2cc(N)ccc12`: the TGI in the experiment on 786-0 renal, in the experiment on A498 renal, in the experiment with COLO 205 colon, in the experiment on EKVX NSCLC, in the experiment on HCT-15 colon and in the experiment on K-562 leukemia was > 100 µM throughout. Also, the TGI with LOX IMVI melanoma, with NCI-H226 lung and with OVCAR-4 ovarian was > 100 µM in each case.
Take `O=C(/C=C/c1ccc(OCc2ccccc2)cc1)NCc1ccc(C(=O)NCCc2ccccc2)cc1`: the TGI in the experiment with 786-0 renal, in the experiment on A498 renal, with COLO 205 colon, with EKVX NSCLC, in the experiment with HCT-15 colon and with HS 578T breast was > 100 µM each time. Also, the TGI in the experiment with LOX IMVI melanoma, with NCI-H226 lung, in the experiment on NCI-H522 lung and in the experiment with OVCAR-4 ovarian was > 100 µM throughout.
`C[N+]1(C)CCCC(C#N)(c2ccccc2)CC1` (stereo not drawn): the TGI in the experiment on 786-0 renal, with A498 renal, in the experiment with COLO 205 colon, with EKVX NSCLC, with HCT-15 colon and with HS 578T breast was > 100 µM throughout. Besides, the TGI with K-562 leukemia and with OVCAR-4 ovarian was > 100 µM throughout.
`CC(C)(C)OC(=O)Cn1ncn(NC(=O)Cc2ccccc2)c1=S`: the TGI with 786-0 renal, with A498 renal, with COLO 205 colon, in the experiment on EKVX NSCLC, with HCT-15 colon and with HS 578T breast was > 10 µM throughout. Besides, the TGI in the experiment with K-562 leukemia, with LOX IMVI melanoma, in the experiment on NCI-H522 lung and in the experiment with OVCAR-4 ovarian was > 10 µM throughout.
`CN(C)C(=O)C(F)(F)C(c1ccccc1)C1C(=O)N(C)C(=O)N(C)C1=O` (stereo not drawn): the TGI in the experiment with 786-0 renal, with A498 renal, in the experiment with COLO 205 colon, in the experiment on EKVX NSCLC, with HCT-15 colon and with K-562 leukemia was > 100 µM in each case. For the same compound, the TGI with LOX IMVI melanoma, with NCI-H226 lung and with OVCAR-4 ovarian was > 100 µM in each case.
`ClC1=NSSC1(Cl)Cl`: the TGI in the experiment with 786-0 renal is 59.3 µM; in the experiment on A498 renal it was > 100 µM; in the experiment with COLO 205 colon it was 30.8 µM; in the experiment on EKVX NSCLC, > 100 µM; with HCT-15 colon, 60 µM; in the experiment with K-562 leukemia it was 24 µM. For the same compound, the TGI in the experiment on LOX IMVI melanoma is > 100 µM; with NCI-H226 lung, > 100 µM; with NCI-H522 lung, 38.8 µM; in the experiment with OVCAR-4 ovarian it was > 100 µM.
As for `CC1CC(=O)N(N(C)C)C2(C#N)C(=O)N=C(N)C12C#N` (stereo not drawn), the TGI in the experiment with 786-0 renal, with A498 renal, with COLO 205 colon, in the experiment with EKVX NSCLC, with HCT-15 colon and in the experiment with HS 578T breast was > 100 µM throughout. The TGI in the experiment with K-562 leukemia is 59.6 µM; in the experiment on LOX IMVI melanoma, > 100 µM; in the experiment with NCI-H522 lung, > 100 µM; in the experiment with OVCAR-4 ovarian, > 100 µM.
As for `Cc1ccc(C(=O)N/N=C(\N=Nc2ccc([N+](=O)[O-])cc2)c2ccc(N(CCC#N)CCC#N)cc2C)cc1`, the TGI with 786-0 renal, in the experiment on A498 renal, in the experiment with COLO 205 colon, in the experiment with EKVX NSCLC, in the experiment on HCT-15 colon and in the experiment on HS 578T breast was > 100 µM in each case. Besides, the TGI with K-562 leukemia, in the experiment on LOX IMVI melanoma, with NCI-H226 lung and in the experiment on OVCAR-4 ovarian was > 100 µM each time.
Regarding `COc1cc2c(c(OC)c1OC)C(=O)c1c(O)cc(C)c(OC)c1C2=O`, the TGI was > 100 µM in the experiment on 786-0 renal; > 100 µM in the experiment on A498 renal; > 100 µM in the experiment with COLO 205 colon; > 100 µM in the experiment on EKVX NSCLC; > 100 µM with HCT-15 colon; 70.1 µM with HS 578T breast. Also, the TGI in the experiment with LOX IMVI melanoma, in the experiment with NCI-H226 lung, in the experiment on NCI-H522 lung and with OVCAR-4 ovarian was > 100 µM in each case.
In the case of `C[N+](C)(CCNc1ccc(NCC[N+](C)(C)Cc2ccc([N+](=O)[O-])cc2)c2c1C(=O)c1c(O)ccc(O)c1C2=O)Cc1ccc([N+](=O)[O-])cc1`, the TGI with 786-0 renal, in the experiment with A498 renal, in the experiment on COLO 205 colon, with EKVX NSCLC, with HCT-15 colon and with HS 578T breast was > 50 µM throughout. In addition, the TGI in the experiment with K-562 leukemia is > 5 µM; with LOX IMVI melanoma it was > 50 µM; in the experiment with NCI-H522 lung it was > 50 µM; in the experiment with OVCAR-4 ovarian, > 50 µM.
As to `O=C1NC(N2CCCC(CO)C2)=N/C1=C\c1cccs1` (stereo not drawn), the TGI in the experiment on 786-0 renal, in the experiment with COLO 205 colon, in the experiment on EKVX NSCLC, in the experiment with HCT-15 colon, in the experiment with HS 578T breast and in the experiment with K-562 leukemia was > 100 µM each time. In addition, the TGI in the experiment with LOX IMVI melanoma, in the experiment with NCI-H226 lung, in the experiment with NCI-H522 lung and with OVCAR-4 ovarian was > 100 µM in each case.
Turning to `CCOC(=O)C(C)c1nc2cc(F)c(F)cc2[nH]c1=O` (stereo not drawn), the TGI in the experiment on 786-0 renal, with COLO 205 colon, in the experiment on EKVX NSCLC, in the experiment with HCT-15 colon, in the experiment on HS 578T breast and in the experiment on K-562 leukemia was > 100 µM in each case. The TGI in the experiment on LOX IMVI melanoma, in the experiment on NCI-H226 lung and with OVCAR-4 ovarian was > 100 µM throughout.
Regarding `Cc1ccc(/C=c2\cc3oc(=O)c4cccc(c4-3)c2=O)cc1`, the TGI in the experiment on 786-0 renal, in the experiment on A498 renal, in the experiment on COLO 205 colon, in the experiment on EKVX NSCLC, with HCT-15 colon and with K-562 leukemia was > 100 µM in each case. For the same compound, the TGI in the experiment on LOX IMVI melanoma, with NCI-H522 lung and in the experiment with OVCAR-4 ovarian was > 100 µM each time.
Consider `CCOC(=O)Cc1c(C(=O)OCC)[n+](=O)c2cc(Cl)c(Cl)cc2n1[O-]`, for which the TGI in the experiment with 786-0 renal worked out at 3.84 µM; in the experiment on A498 renal, 6.14 µM; in the experiment with COLO 205 colon it was 3.27 µM; with EKVX NSCLC, 11.4 µM; in the experiment with HS 578T breast it was 6.46 µM; with K-562 leukemia it was 5.65 µM. The values for the TGI with LOX IMVI melanoma, with NCI-H522 lung and in the experiment on OVCAR-4 ovarian were 4.65 µM, 3.63 µM and 3.51 µM, respectively.
